Columns and labels:
SR Ca^2+-ATPase = target: T1, SR Ca^2+-ATPase (Canis lupus familiaris, UniProt O46674); assay: Sarcoplasmic reticulum Ca^2+-ATPase assay; format: biochemical, dog; settings: for IC50: read-out: SR Ca^2+-ATPase IC50 = conc. for 50% inhibition; for SR Ca^2+-ATPase Activity: 0 µM = 100, dog cardiac SR
T1 construct: Effect of gingerols and their derivatives on the Ca^2+-ATPase activity of dog cardiac SR; from tissue; host or cells: dog heart (cardiac sarcoplasmic reticulum)
Experimental: A portion at each concentration (54 µl) was aliquoted into 4 designated wells of the microplate (two of four wells were controls). Each well was mixed with ATP solution (20 mM, 6 µl), except the controls, using an 8 channel pipette. The controls were assayed in the absence of ATP or calcium.
The plate was incubated with the lid on, for 30 min at 37°C, colour reagent (160 µl) was then added and mixed with citrate solution (34%, 30 µl). The plate was developed at room temperature for 30 min then absorbance at 655 nm was read from the microplate reader. The Ca^2+-ATPase activity was quantitated, from a Pi standard curve, as concentration of liberated inorganic phosphate.
Stock solutions (10 mM) of test substance were prepared in DMSO, then series dilutions were made either in DMSO or in 1M HEPES to produce the dose-response concentrations. The maximum concentration of DMSO in the final assay solution was 2.5%.
Each concentration of test substance was assayed in duplicate in the presence and absence of ATP or calcium. Phosphate standards are run on each plate as follows:
Effect of gingerols and their derivatives on the Ca^2+-ATPase activity of dog cardiac SR.

cardiac Purkinje fibres = assay: Cardiac electrophysiology on Purkinje fibres; parameters: species or system dog
Experimental: The basic cardiac electrophysiological properties were assessed using cardiac Purkinje fibres obtained from adult mongrel dogs.
Electrophysiology was carried out on dog heart purkinje fibre to test for potential arrhythmia. […] At high concentration (50 µM), however, [8]-gingerol reduced approximate 80% and 50% of action potential duration at 50% and 90% repolarisations respectively. Whereas the analogue reduced 75% and 30% respectively.

Platelet rich plasma = assay: Platelet aggregation: [^3H]-serotonin release from platelet rich plasma, arachidonic acid initiated; format: cell-based; settings: Homo sapiens, activation by EC50 concentration of arachidonic acid
Experimental: Blood was collected from healthy volunteers who had taken no medication in the previous two weeks. The anticoagulant used was 3.8 % trisodium citrate. Platelet rich plasma was prepared and incubated with [^3H]-serotonin. This was followed by addition of gingerol analogues. Platelet activation was initiated using the EC50 concentration for arachidonic acid. The percentage of [^3H]-serotonin release was measured using a liquid scintillation counter. Then, dose-response curves were established and IC50 values were obtained.

rat mesenteric artery = assay: Vasodilation on rat mesenteric small arteries; settings: for EC50: Rattus norvegicus, relaxation of small arteries (200-300 µm) precontracted with endothelin; for relaxation of rat mesenteric artery: result in words
Excerpt: Small arteries (200-300 µm in diameter) isolated from rat mesentery were precontracted with endothelin prior to addition of the test substances and tested for relaxation.

T1 sequence (O46674 whole entry): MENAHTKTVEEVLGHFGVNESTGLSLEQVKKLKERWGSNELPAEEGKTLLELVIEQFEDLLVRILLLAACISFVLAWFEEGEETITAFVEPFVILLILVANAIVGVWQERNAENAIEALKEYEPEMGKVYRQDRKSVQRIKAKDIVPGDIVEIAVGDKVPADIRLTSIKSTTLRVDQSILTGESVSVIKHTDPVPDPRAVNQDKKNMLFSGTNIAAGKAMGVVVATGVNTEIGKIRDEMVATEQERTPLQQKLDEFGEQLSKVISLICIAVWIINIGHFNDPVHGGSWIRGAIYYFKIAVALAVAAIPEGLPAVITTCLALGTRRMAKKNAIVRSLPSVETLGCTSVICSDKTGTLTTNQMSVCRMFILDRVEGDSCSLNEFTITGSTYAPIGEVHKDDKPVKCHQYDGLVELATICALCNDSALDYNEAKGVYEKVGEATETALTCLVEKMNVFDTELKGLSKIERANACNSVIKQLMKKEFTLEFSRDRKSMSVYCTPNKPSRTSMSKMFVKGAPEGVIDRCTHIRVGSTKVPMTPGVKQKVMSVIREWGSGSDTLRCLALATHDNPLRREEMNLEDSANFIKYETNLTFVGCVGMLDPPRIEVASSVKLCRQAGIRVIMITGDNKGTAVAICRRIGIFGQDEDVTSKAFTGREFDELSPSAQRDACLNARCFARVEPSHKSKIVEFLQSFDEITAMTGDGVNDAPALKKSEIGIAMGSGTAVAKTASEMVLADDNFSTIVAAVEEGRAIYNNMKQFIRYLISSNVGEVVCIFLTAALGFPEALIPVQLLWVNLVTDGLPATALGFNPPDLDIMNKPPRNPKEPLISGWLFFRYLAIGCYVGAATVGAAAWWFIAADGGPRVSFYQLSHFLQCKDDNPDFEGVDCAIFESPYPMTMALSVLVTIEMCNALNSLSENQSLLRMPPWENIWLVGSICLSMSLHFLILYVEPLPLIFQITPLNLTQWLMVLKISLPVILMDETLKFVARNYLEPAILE

**Q.** What does the source list for CCCCCCCC(O)CC(=O)CCc1cccc(OC)c1O (stereo not drawn) [[8]-orthogingerol, 5-hydroxy-1-(2-hydroxy-3-methoxyphenyl)dodecan-3-one]?
**A.** SR Ca^2+-ATPase ↑ increase or stimulation (SR Ca^2+-ATPase; @ 100 µM): ↑40% @ 100; IC50 (SR Ca^2+-ATPase): > 100 µM

**Q.** Which results are given for CCCCCCCC(O)CC(=O)CCc1ccc(O)cc1 (stereo not drawn) [[8]-demethoxygingerol, 5-hydroxy-1-(4-hydroxyphenyl)dodecan-3-one]?
**A.** SR Ca^2+-ATPase ↑ increase or stimulation (SR Ca^2+-ATPase; @ 50 µM): ↑60% @ 50; IC50 (SR Ca^2+-ATPase): > 100 µM

**Q.** What does the source list for CCCCCCCC(O)CC(=O)CCc1ccc(OC)c(O)c1 (stereo not drawn) [[8]-isogingerol, 5-hydroxy-1-(3-hydroxy-4-methoxyphenyl)dodecan-3-one, reference compound]?
**A.** SR Ca^2+-ATPase ↑ increase or stimulation (SR Ca^2+-ATPase; @ 50 µM): ↑64% @ 50; IC50 (SR Ca^2+-ATPase): > 100 µM

**Q.** For CCCCCCCC(O)CC(=O)CCc1ccc(O)c(OC)c1 (stereo not drawn) [[8]-gingerol, 5-hydroxy-1-(4-hydroxy-3-methoxyphenyl)dodecan-3-one, reference compound], which “SR Ca^2+-ATPase Activity” value (SR Ca^2+-ATPase; 1 µM) is on record?
**A.** 139

**Q.** And the “SR Ca^2+-ATPase Activity” value (SR Ca^2+-ATPase; 5 µM)?
**A.** 158

**Q.** And the “SR Ca^2+-ATPase Activity” value (SR Ca^2+-ATPase; 10 µM)?
**A.** 165

**Q.** What about the “SR Ca^2+-ATPase Activity” value (SR Ca^2+-ATPase; 25 µM) of the same compound?
**A.** 200

**Q.** And the “SR Ca^2+-ATPase Activity” value (SR Ca^2+-ATPase; 50 µM)?
**A.** 139

**Q.** And the “SR Ca^2+-ATPase ↑ increase or stimulation” value (SR Ca^2+-ATPase; @ 25 µM)?
**A.** ↑100% @ 25

**Q.** And the IC50 (SR Ca^2+-ATPase)?
**A.** ~100 µM

**Q.** What about the “Action Potential Amplitude” value (cardiac Purkinje fibres; 5 µM) of the same compound?
**A.** 124±2 mV

**Q.** What about the “Action Potential Duration 50% repolarisation” value (cardiac Purkinje fibres; 5 µM) of the same compound?
**A.** 242 ± 20 ms

**Q.** And the “Action Potential Duration 90% repolarisation” value (cardiac Purkinje fibres; 5 µM)?
**A.** 363 ± 27 ms

**Q.** What about the “Maximum rate of depolarisation” value (cardiac Purkinje fibres; 5 µM) of the same compound?
**A.** 532±42 V/s

**Q.** And the “Action Potential Amplitude” value (cardiac Purkinje fibres; 10 µM)?
**A.** 120±4 mV

**Q.** And the “Action Potential Duration 50% repolarisation” value (cardiac Purkinje fibres; 10 µM)?
**A.** 207 ± 20 ms

**Q.** What about the “Action Potential Duration 90% repolarisation” value (cardiac Purkinje fibres; 10 µM) of the same compound?
**A.** 339 ± 26 ms

**Q.** What about the “Maximum rate of depolarisation” value (cardiac Purkinje fibres; 10 µM) of the same compound?
**A.** 483±41 V/s

**Q.** And the “Action Potential Amplitude” value (cardiac Purkinje fibres; 20 µM)?
**A.** 119±2 mV

**Q.** What about the “Action Potential Duration 50% repolarisation” value (cardiac Purkinje fibres; 20 µM) of the same compound?
**A.** 142 ± 20 ms

**Q.** What about the “Action Potential Duration 90% repolarisation” value (cardiac Purkinje fibres; 20 µM) of the same compound?
**A.** 285 ± 26 ms

**Q.** What about the “Maximum rate of depolarisation” value (cardiac Purkinje fibres; 20 µM) of the same compound?
**A.** 499±41 V/s

**Q.** What about the “Action Potential Amplitude” value (cardiac Purkinje fibres; 30 µM) of the same compound?
**A.** 114±3 mV

**Q.** And the “Action Potential Duration 50% repolarisation” value (cardiac Purkinje fibres; 30 µM)?
**A.** 107 ± 17 ms

**Q.** And the “Action Potential Duration 90% repolarisation” value (cardiac Purkinje fibres; 30 µM)?
**A.** 248 ± 25 ms

**Q.** And the “Maximum rate of depolarisation” value (cardiac Purkinje fibres; 30 µM)?
**A.** 443±45 V/s

**Q.** What about the “Action Potential Amplitude” value (cardiac Purkinje fibres; 40 µM) of the same compound?
**A.** 116±4 mV

**Q.** What about the “Action Potential Duration 50% repolarisation” value (cardiac Purkinje fibres; 40 µM) of the same compound?
**A.** 88 ± 15 ms

**Q.** And the “Action Potential Duration 90% repolarisation” value (cardiac Purkinje fibres; 40 µM)?
**A.** 229 ± 22 ms

**Q.** What about the “Maximum rate of depolarisation” value (cardiac Purkinje fibres; 40 µM) of the same compound?
**A.** 516±67 V/s

**Q.** What about the “Action Potential Amplitude” value (cardiac Purkinje fibres; 50 µM) of the same compound?
**A.** 109±8 mV

**Q.** And the “Action Potential Duration 50% repolarisation” value (cardiac Purkinje fibres; 50 µM)?
**A.** 76 ± 12 ms

**Q.** And the “Action Potential Duration 90% repolarisation” value (cardiac Purkinje fibres; 50 µM)?
**A.** 221 ± 19 ms

**Q.** What about the “Maximum rate of depolarisation” value (cardiac Purkinje fibres; 50 µM) of the same compound?
**A.** 471±73 V/s

**Q.** What about the “reduction of action potential duration at 50% repolarisation” value (cardiac Purkinje fibres; 50 µM) of the same compound?
**A.** ~80%

**Q.** What about the “reduction of action potential duration at 90% repolarisation” value (cardiac Purkinje fibres; 50 µM) of the same compound?
**A.** ~50%

**Q.** What about the “effect on rate of depolarization, amplitude of action potential and duration of action potential at 50% and 90% repolarization” value (cardiac Purkinje fibres; up to 10 µM) of the same compound?
**A.** insignificant effect

**Q.** What about the IC50 (Platelet rich plasma) of the same compound?
**A.** 70.4 ± 3.8 µM

**Q.** With CCCCCCCC(=O)CC(O)CCc1ccc(O)c(OC)c1 (stereo not drawn) [3-hydroxy-1-(4-hydroxy-3-methoxyphenyl)dodecan-5-one] as the compound, how does the IC50 (SR Ca^2+-ATPase) read?
**A.** > 100 µM

**Q.** And the EC50 (rat mesenteric artery)?
**A.** 0.04 µM

**Q.** And the “relaxation of rat mesenteric artery” value (rat mesenteric artery)?
**A.** showed potency

**Q.** CCCCCCCC(O)CC(O)CCc1ccc(O)c(OC)c1 (stereo not drawn) [[8]-gingerdiol, 1-(4-hydroxy-3-methoxyphenyl)dodecane-3,5-diol, reference compound] was tested. Which “SR Ca^2+-ATPase ↑ increase or stimulation” value (SR Ca^2+-ATPase; @ 50 µM) did it give?
**A.** ↑54% @ 50

**Q.** And the IC50 (SR Ca^2+-ATPase)?
**A.** > 100 µM

**Q.** And the IC50 (Platelet rich plasma)?
**A.** 82.6 ± 9 µM

**Q.** Which EC50 (rat mesenteric artery) does the source give for CCCCCCCC(O)CC(=O)CCc1ccc2c(c1)OCO2 (stereo not drawn) [5-hydroxy-1-(3,4-methylenedioxyphenyl)dodecan-3-one] here?
**A.** 0.69 µM

**Q.** What about the “relaxation of rat mesenteric artery” value (rat mesenteric artery) of the same compound?
**A.** showed potency

**Q.** CCCCCC(O)CC(=O)CCc1ccc(O)c(OC)c1 (stereo not drawn) [[6]-gingerol, 5-hydroxy-1-(4-hydroxy-3-methoxyphenyl)decan-3-one, reference compound] was tested. Which “SR Ca^2+-ATPase Activity” value (SR Ca^2+-ATPase; 1 µM) did it give?
**A.** 121

**Q.** And the “SR Ca^2+-ATPase Activity” value (SR Ca^2+-ATPase; 5 µM)?
**A.** 120

**Q.** What about the “SR Ca^2+-ATPase Activity” value (SR Ca^2+-ATPase; 10 µM) of the same compound?
**A.** 117

**Q.** And the “SR Ca^2+-ATPase Activity” value (SR Ca^2+-ATPase; 25 µM)?
**A.** 137

**Q.** And the “SR Ca^2+-ATPase Activity” value (SR Ca^2+-ATPase; 50 µM)?
**A.** 160

**Q.** And the “SR Ca^2+-ATPase ↑ increase or stimulation” value (SR Ca^2+-ATPase; @ 50 µM)?
**A.** ↑60% @ 50

**Q.** And the IC50 (SR Ca^2+-ATPase)?
**A.** > 100 µM

**Q.** And the IC50 (Platelet rich plasma)?
**A.** 73.8 ± 6.6 µM

**Q.** For CCCCCCCC(O)CC(=O)C=Cc1ccc(O)c(OC)c1 (stereo not drawn) [[8]-dehydrogingerol, 5-hydroxy-1-(4-hydroxy-3-methoxyphenyl)dodecan-1-ene-3-one, reference compound], which “SR Ca^2+-ATPase Activity” value (SR Ca^2+-ATPase; 1 µM) is on record?
**A.** 93

**Q.** And the “SR Ca^2+-ATPase Activity” value (SR Ca^2+-ATPase; 5 µM)?
**A.** 88

**Q.** And the “SR Ca^2+-ATPase Activity” value (SR Ca^2+-ATPase; 10 µM)?
**A.** 92

**Q.** And the “SR Ca^2+-ATPase Activity” value (SR Ca^2+-ATPase; 25 µM)?
**A.** 95

**Q.** What about the “SR Ca^2+-ATPase Activity” value (SR Ca^2+-ATPase; 50 µM) of the same compound?
**A.** 65

**Q.** And the inhibition at 50 µM (SR Ca^2+-ATPase; @ 50 µM, read-out: SR Ca^2+-ATPase ↓ decrease or inhibition)?
**A.** 35%

**Q.** And the IC50 (SR Ca^2+-ATPase)?
**A.** ~50 µM

**Q.** Which “SR Ca^2+-ATPase Activity” value (SR Ca^2+-ATPase; 5 µM) does the source give for CCCCCCCC(O)CCCCc1ccc(O)c(OC)c1 (stereo not drawn) [1-(4-hydroxy-3-methoxyphenyl)dodecan-5-ol] here?
**A.** 113

**Q.** What about the “SR Ca^2+-ATPase Activity” value (SR Ca^2+-ATPase; 10 µM) of the same compound?
**A.** 136

**Q.** What about the “SR Ca^2+-ATPase Activity” value (SR Ca^2+-ATPase; 25 µM) of the same compound?
**A.** 158

**Q.** And the “SR Ca^2+-ATPase Activity” value (SR Ca^2+-ATPase; 50 µM)?
**A.** 126

**Q.** What about the “SR Ca^2+-ATPase Activity” value (SR Ca^2+-ATPase; 100 µM) of the same compound?
**A.** 87

**Q.** What about the “SR Ca^2+-ATPase Activity” value (SR Ca^2+-ATPase; 200 µM) of the same compound?
**A.** 18

**Q.** And the “SR Ca^2+-ATPase ↑ increase or stimulation” value (SR Ca^2+-ATPase; @ 25 µM)?
**A.** ↑57% @ 25

**Q.** And the IC50 (SR Ca^2+-ATPase)?
**A.** ~25 µM

From patent EP1056700B1, “MEDICINAL USES OF PHENYLALKANOLS AND DERIVATES” (ZingoTX Pty Ltd, priority 1997, dated 1999)
